Positions of bridges follow the written chain, without caps; N, C: chain ends. Residues, ends and D or L forms follow the SMILES beside them.
How the values were obtained:
Homo sapiens [1] = species: Homo sapiens; test: Liver toxicity in human assessed as induction of drug-induced liver injury by measuring verified drug-induced liver injury concern status
Homo sapiens [2] = species: Homo sapiens; test: Liver toxicity in human assessed as induction of drug-induced liver injury by measuring severity class index
Throughout, for DILI severity class: key of the grades not given here.

Row | Compound | DILI_Concern (Homo sapiens [1]) | DILI_severity_class (Homo sapiens [2])
1 | C#CCC(Cc1cnc2nc(N)nc(N)c2n1)c1ccc(C(=O)N[C@@H](CCC(=O)O)C(=O)O)cc1 (stereo not given in full) [PRALATREXATE] | Ambiguous-Dili-Concern | 3
2 | CC(C)C[C@H](NC(=O)[C@@H](COC(C)(C)C)NC(=O)[C@H](Cc1ccc(O)cc1)NC(=O)[C@H](CO)NC(=O)[C@H](Cc1c[nH]c2ccccc12)NC(=O)[C@H](Cc1cnc[nH]1)NC(=O)[C@@H]1CCC(=O)N1)C(=O)N[C@@H](CCCNC(=N)N)C(=O)N1CCC[C@H]1C(=O)NNC(N)=O [GOSERELIN] | Ambiguous-Dili-Concern | 3
3 | CCc1nc(N)nc(N)c1-c1ccc(Cl)cc1 [PYRIMETHAMINE] | Less-Dili-Concern | 3
4 | Cc1[nH]cnc1CN1CCc2c(c3ccccc3n2C)C1=O [ALOSETRON] | Less-Dili-Concern | 4
5 | CCCN(CCC)CCc1cccc2c1CC(=O)N2 [ROPINIROLE] | Less-Dili-Concern | 4
6 | CN1CC[C@]23c4c5ccc(O)c4O[C@H]2[C@@H](O)C=C[C@H]3[C@H]1C5 [MORPHINE] | No-Dili-Concern | 0
7 | CC[C@H]1OC(=O)[C@H](C)[C@@H](O[C@H]2C[C@@](C)(OC)[C@@H](O)[C@H](C)O2)[C@H](C)[C@@H](O[C@@H]2O[C@H](C)C[C@H](N(C)C)[C@H]2O)[C@](C)(O)C[C@@H](C)C(=O)[C@H](C)[C@@H](O)[C@]1(C)O [ERYTHROMYCIN] | Most-Dili-Concern | 5
8 | CC(C)NCC(O)c1ccc(NS(C)(=O)=O)cc1 (stereo not given) [SOTALOL] | Ambiguous-Dili-Concern | 3
9 | C[C@]12CC[C@H]3[C@@H](CCC4=CC(=O)CC[C@@]43C)[C@@H]1CC[C@@H]2O [TESTOSTERONE] | Most-Dili-Concern | 8
10 | NC(=O)C(c1ccccc1)(c1ccccc1)[C@@H]1CCN(CCc2ccc3c(c2)CCO3)C1 [DARIFENACIN] | No-Dili-Concern | 0
11 | CSCC[C@H](N)C(=O)O [METHIONINE] | No-Dili-Concern | 0
12 | COCCCOc1ccnc(C[S+]([O-])c2nc3ccccc3[nH]2)c1C (stereo not given) [RABEPRAZOLE] | Less-Dili-Concern | 3
13 | CCCCCC(=O)O[C@]1(C(C)=O)CC[C@H]2[C@@H]3CCC4=CC(=O)CC[C@]4(C)[C@H]3CC[C@@]21C [HYDROXYPROGESTERONE CAPROATE] | Ambiguous-Dili-Concern | 2
14 | O=C1CCC(N2C(=O)c3ccccc3C2=O)C(=O)N1 (stereo not given) [THALIDOMIDE] | Less-Dili-Concern | 4
15 | COc1ccccc1Oc1c(NS(=O)(=O)c2ccc(C(C)(C)C)cc2)nc(-c2ncccn2)nc1OCCO [BOSENTAN] | Most-Dili-Concern | 7
16 | COCC1=C(C(=O)O)N2C(=O)[C@@H](NC(=O)/C(=N\OC)c3csc(N)n3)[C@H]2SC1 [CEFPODOXIME] | Ambiguous-Dili-Concern | 3
17 | CCN(C(C)=O)c1cccc(-c2ccnc3c(C#N)cnn23)c1 [ZALEPLON] | No-Dili-Concern | 0
18 | CC(CN1c2ccccc2Sc2ccccc21)N(C)C (stereo not given) [PROMETHAZINE] | Less-Dili-Concern | 5
19 | CC(CN(C)C)CN1c2ccccc2CCc2ccccc21 (stereo not given) [TRIMIPRAMINE] | Ambiguous-Dili-Concern | 2
20 | C[N+]1(C)[C@@H]2C[C@@H](OC(=O)[C@H](CO)c3ccccc3)C[C@H]1[C@@H]1O[C@@H]12.[Br-] [METHSCOPOLAMINE BROMIDE] | No-Dili-Concern | 0
21 | CCc1oc2ccccc2c1C(=O)c1cc(I)c(O)c(I)c1 [BENZIODARONE] | Most-Dili-Concern | 8
22 | O=C(O)CN(CCN(CC(=O)O)CC(=O)O)CC(=O)O [EDETIC ACID] | Ambiguous-Dili-Concern | 3
23 | CC[C@H](C)[C@@H]1NC(=O)[C@H](Cc2ccc(O)cc2)NC(=O)[C@@H](N)CSSC[C@@H](C(=O)N2CCC[C@H]2C(=O)N[C@@H](CC(C)C)C(=O)NCC(N)=O)NC(=O)[C@H](CC(N)=O)NC(=O)[C@H]([C@@H](C)O)NC1=O (H-CYITNCPLG-NH2; disulfide 1-6) | No-Dili-Concern | 0
24 | CCCCN1C[C@H](O)[C@@H](O)[C@H](O)[C@H]1CO | No-Dili-Concern | 0
25 | CSCC[C@H](NC(=O)[C@H](Cc1ccc(OS(=O)(=O)O)cc1)NC(=O)[C@@H](N)CC(=O)O)C(=O)NCC(=O)N[C@@H](Cc1c[nH]c2ccccc12)C(=O)N[C@@H](CCSC)C(=O)N[C@@H](CC(=O)O)C(=O)N[C@@H](Cc1ccccc1)C(N)=O [SINCALIDE] | No-Dili-Concern | 0

Row | Compound | DILI_Concern (Homo sapiens [1]) | DILI_severity_class (Homo sapiens [2])
26 | COc1c(C)c2c(c(O)c1C/C=C(\C)CCC(=O)OCCN1CCOCC1)C(=O)OC2 [MYCOPHENOLATE MOFETIL] | Less-Dili-Concern | 3
27 | CCC[C@@H]1C[C@@H](C(=O)N[C@@H]([C@H]2O[C@H](SC)[C@H](OP(=O)(O)O)[C@@H](O)[C@H]2O)[C@H](C)Cl)N(C)C1 [CLINDAMYCIN PHOSPHATE] | Ambiguous-Dili-Concern | 3
28 | C[C@@](Cc1ccc(O)c(O)c1)(NN)C(=O)O [CARBIDOPA ANHYDROUS] | Ambiguous-Dili-Concern | 3
29 | CC(C)N(CCC(C(N)=O)(c1ccccc1)c1ccccn1)C(C)C (stereo not given) [DISOPYRAMIDE] | Less-Dili-Concern | 2
30 | NNc1nncc2ccccc12 [HYDRALAZINE] | Less-Dili-Concern | 3
31 | N=C(N)NCCC[C@H](N)C(=O)O [ARGININE] | No-Dili-Concern | 0
32 | C#C[C@]1(O)CC[C@H]2[C@@H]3CCC4=CC(=O)CC[C@@H]4[C@H]3C(=C)C[C@@]21CC [ETONOGESTREL] | Ambiguous-Dili-Concern | 5
33 | Cc1cn[nH]c1 [FOMEPIZOLE] | Ambiguous-Dili-Concern | 3
34 | CC(C)NNC(=O)c1ccncc1 [IPRONIAZID] | Most-Dili-Concern | 8
35 | Clc1ccc(C(c2ccccc2Cl)C(Cl)Cl)cc1 (stereo not given) [MITOTANE] | No-Dili-Concern | 0
36 | COc1cc2c(cc1OC)C1CC(=O)C(CC(C)C)CN1CC2 (stereo not given) [TETRABENAZINE] | Ambiguous-Dili-Concern | 3
37 | Nc1ccc(S(=O)(=O)Nc2nccs2)cc1 [SULFATHIAZOLE] | Most-Dili-Concern | 8
38 | C[N+](C)(C)CCOC(=O)CCC(=O)OCC[N+](C)(C)C [SUXAMETHONIUM] | No-Dili-Concern | 0
39 | CC1Cc2ccccc2N1NC(=O)c1ccc(Cl)c(S(N)(=O)=O)c1 (stereo not given) [INDAPAMIDE] | Ambiguous-Dili-Concern | 5
40 | CCc1ccc(CCOc2ccc(CC3SC(=O)NC3=O)cc2)nc1 (stereo not given) [PIOGLITAZONE] | Less-Dili-Concern | 3
41 | CC(=O)[C@]1(O)Cc2c(O)c3c(c(O)c2[C@@H](O[C@H]2C[C@H](N)[C@H](O)[C@H](C)O2)C1)C(=O)c1ccccc1C3=O [IDARUBICIN] | Ambiguous-Dili-Concern | 3
42 | Cn1c(=O)c2c(ncn2CC(O)CO)n(C)c1=O (stereo not given) [DYPHYLLINE] | No-Dili-Concern | 0
43 | VERTEPORFIN | Ambiguous-Dili-Concern | 3
44 | Cc1cc2c(s1)Nc1ccccc1N=C2N1CCN(C)CC1 [OLANZAPINE] | Less-Dili-Concern | 3
45 | OC[C@H]1O[C@@H](n2cnc3c2NC=NC[C@H]3O)C[C@@H]1O [PENTOSTATIN] | Most-Dili-Concern | 3
46 | CCN1CCN(C(=O)N[C@@H](C(=O)N[C@@H]2C(=O)N3[C@@H]2SC(C)(C)[C@@H]3C(=O)O)c2ccccc2)C(=O)C1=O [PIPERACILLIN] | Ambiguous-Dili-Concern | 3
47 | CN1CCC(Nc2ncc3ncnc(Nc4ccc(F)c(Cl)c4)c3n2)CC1 [FALNIDAMOL] | Most-Dili-Concern | 8
48 | COc1c(N2C[C@@H]3CCCN[C@@H]3C2)c(F)cc2c(=O)c(C(=O)O)cn(C3CC3)c12 [MOXIFLOXACIN] | Less-Dili-Concern | 8
49 | BIVALIRUDIN | No-Dili-Concern | 0
50 | Cc1cc(C#N)cc(C)c1Oc1nc(Nc2ccc(C#N)cc2)nc(N)c1Br [ETRAVIRINE] | Most-Dili-Concern | 8

From ChEMBL document CHEMBL4028802, “DILIrank: the largest reference drug list ranked by the risk for developing drug-induced liver injury in humans” (Drug Discov Today, 2016)
